# Columns and labels:
# [1] = molecular target: T1, PFA0210c (full-length, FL) (Plasmodium falciparum, UniProt Q8I298); experiment: […]-phosphatidylcholine transfer from donor to acceptor vesicles; format: biochemical; details: pH 7.4, 37 °C, 30 min; 25 μg/ml protein; labelled compound (trace in phosphatidylcholine vesicles)
# T1 construct: gene PF3D7_0104200; residues 144-466 (N-terminal region omitted, START domain plus whole C-terminal extension); N-terminal MBP and C-terminal His6 kept; E. coli BL21(DE3); monomeric SEC fractions; strain only from the locus tag and parasite line
# T1 sequence (Q8I298 144-466): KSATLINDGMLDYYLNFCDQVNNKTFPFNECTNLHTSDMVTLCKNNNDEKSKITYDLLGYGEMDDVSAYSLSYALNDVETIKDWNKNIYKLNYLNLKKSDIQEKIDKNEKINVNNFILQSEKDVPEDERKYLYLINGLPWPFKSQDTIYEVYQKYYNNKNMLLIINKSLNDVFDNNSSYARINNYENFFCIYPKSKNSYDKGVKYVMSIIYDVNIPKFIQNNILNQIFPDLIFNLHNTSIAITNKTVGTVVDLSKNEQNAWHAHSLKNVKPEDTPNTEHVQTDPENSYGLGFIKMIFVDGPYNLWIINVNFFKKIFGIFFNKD
# [2] = molecular target: T2, truncated PFA0210c (Trunc.) (Plasmodium falciparum, UniProt Q8I298); experiment: as above; format: biochemical; details: pH 7.4, 37 °C, 30 min; 25 μg/ml protein; labelled compound (trace in phosphatidylcholine vesicles)
# T2 construct: gene PF3D7_0104200; residues 144-418 (C-terminal 48 residues removed); N-terminal MBP and C-terminal His6 kept; E. coli BL21(DE3)
structure (smiles),measurement,setting,value
CCCCCCCCCCCCCCCC(=O)OC[C@H](COP(=O)([O-])OCC[N+](C)(C)C)OC(=O)CCCCCCCCCCCCCCC [L-α-dipalmitoyl-phosphatidylcholine],phospholipid transfer activity,[1],measures the transfer of radiolabeled phosphatidylcholine from a small population of donor vesicles
same,phospholipid transfer activity,[2],All the truncated proteins showed higher phospholipid transfer activity than the full-length protein

# Source: article PMC5104948, “Regulation and Essentiality of the StAR-related Lipid Transfer (START) Domain-containing Phospholipid Transfer Protein PFA0210c in Malaria Parasites” (The Journal of Biological Chemistry, 2016)
